Measurements as given in US6251897A, “6-phenyltetrahydro-1,3-oxazin-2-one derivative and pharmaceutical composition containing the same” (Nikken Chemicals Co., LTD, priority 1996, dated 2001).
pIC50: −log10 of the molar value.

How the values were obtained:
[1] = system: Type IV PDE; experiment: PDE inhibitory activity, type IV isozyme (3H-cAMP hydrolysis); format: biochemical; conditions: partially purified from rat neutrophils, 30° C., 30 minutes
Procedure: Type I, III, IV, and V PDE isozymes were prepared to study the PDE inhibitory activities and selectivities with the compound of the invention [Trends Pharmacol. Sci., 12, 19-27 (1992)]. Type I PDE was purchased from Sigma Corp. Type III, IV, and V PDE isozymes were partially purified from rats platelets (Type III and V) or neutrophils (Type IV). Each enzyme source was homogenized in a buffer (pH 6.5) containing 20 mM bisTris, 2 mM EDTA (ethylenediamine tetraacetate), 0.1 mM PMSF (phenylmethylsulfonyl fluoride), 5 mM 2-mercaptoethanol, 0.001 mM pepstatin, and 0.01 mM leupeptin and was centrifuged at 30,000×G for 30 minutes to obtain a supernatant, which was applied to an ion exchange column (Q-sepharose First Flow, Pharmacia Corp.) and was eluted with 0 to 1M sodium acetate. Partially purified isozymes were identified by observing the effects of conventional inhibitors.
Each PDE isozyme and the test compound dissolved in DMSO (dimethyl sulfoxide) were added to 50 mM Tris-HCl buffer containing 5 mM magnesium chloride. ^3 H-cAMP (for type III and IV PDE) or ^3 H-cGMP (for type I and V PDE) were added as substrates and were reacted at 30° C. for 30 minutes. The reaction was terminated by placing the test tube in boiling water of 100° C. for 5 minutes. The nucleotides formed by PDE were broken down by 5'-nucleotidase to ^3 H-adenosine or ^3 H-guanosine. The unreacted substrate and reaction product were separated through an ion-exchange column (QAE sephadex, Pharmacia Corp.) The eluted ^3 H-nucleoside was measured for its radioactivity by a liquid scintillation counter. The inhibiting activities of the compound of the present invention are shown by the IC50 value (M). Further, the inhibitory activities of the test samples against Type I, III, and V are 1/10 or less than that against type IV.

[2] = system: rat neutrophils; experiment: Inhibition of super oxide anion release from rat neutrophils (A23187-stimulated chemiluminescence); format: cell-based, rat (Wister); conditions: Neutrophil, stimulated with 0.3 μM calcium ionophore A23187, read-out: Inhibitory action of super oxide anion release from rat neutrophils IC50
Procedure: The release of super oxide anions was measured so as to study the inhibitory effects of the compound on inflammatory leukocytes, that is, neutrophils.
Blood sample was obtained from Wister rats anesthetized with ether. It was superposed on a blood cell separation solution (Polymorphoprep 1.113, made by Naicomet Co. (phonetic)) and the neutrophils were separated by centrifugation. The neutrophils were resuspended in a Hank's balanced salt solution at a concentration of 0.5×10^4 cell/ml. 0.1 mM of Lusigenin and the test substance dissolved in DMSO were added to 2 ml of the cell-suspension. The chemiluminescence generated by stimulation of 0.3 μM calcium ionophore A23187 was measured by a chemiluminescence reader so as to evaluate the release of super oxide anions.

[3] = system: antigen-induced bronchospasm in guinea pig; experiment: Inhibitory effect on antigen-induced bronchospasm (Konzett-Roessler, ovalbumin-sensitized); format: in vivo, guinea pig (Hartley male); conditions: Cavia porcellus; intravenous, 10 minutes before antigen (0.2 mg/kg OA i.v.); read-out: Action for suppressing antigen-induced bronchospasms ED50
Procedure: A Hartley male guinea pig was sensitized by intramuscular administration of […] Ovalbumin (OA) on first day and fourth day, and used after 24th day. A trachial canula was introduced in the guinea pig anesthetized with pentobarbital and artificial ventilation was performed 25 to 29 days after the first sensitization. The overflow of the ventilation was measured by the Konzett-Roessler method while 0.2 mg/kg OA were administered intravenously. The test compound was dissolved in polyethylene glycol 400 and intravenously administered 10 minutes before administration of the antigens.

SMILES	pIC50 [1]	pIC50 [2]	ED50 [3] [mg/kg]
COc1ccc(C2CCNC(=O)O2)cc1OC1CCCC1 (centres unmarked) [Compound No. 2, 6-(3-cyclopentyloxy-4-methoxyphenyl)-3,4,5,6-tetrahydro-2H-1,3-oxazin-2-one]	5.92	6.26	0.23
COc1ccc(C2CCN(C)C(=O)O2)cc1OCC1(c2ccccc2)CC1 (centres unmarked) [Compound No. 57, 6-[4-methoxy-3-[(1-phenylcyclopropyl)methyloxy]phenyl]-3-methyl-3,4,5,6-tetrahydro-2H-1,3-oxazin-2-one]	5.89	–	15.9
COc1ccc(C2CCN(C)C(=O)O2)cc1OC (centres unmarked) [Compound No. 8, 6-(3,4-dimethoxyphenyl)-3-methyl-3,4,5,6-tetrahydro-2H-1,3-oxazin-2-one]	4.72	5.39	–
COc1ccc(C2CCN(C)C(=O)O2)cc1OC1Cc2ccccc2C1 (centres unmarked) [Compound No. 25, 6-[3-(2-indanyloxy)-4-methoxyphenyl]-3-methyl-3,4,5,6-tetrahydro-2H-1,3-oxazin-2-one]	6.72	–	0.061
COc1ccc(C2CCNC(=O)O2)cc1OCCc1ccccc1 (centres unmarked) [Compound No. 23, 6-(4-methoxy-3-phenethyloxyphenyl)-3,4,5,6-tetrahydro-2H-1,3-oxazin-2-one]	5.82	–	13.6
COc1ccc(C2CCN(C)C(=O)O2)cc1OCC(C)C (centres unmarked) [Compound No. 66, 6-[4-methoxy-3-(2-methylpropoxy)phenyl]-3-methyl-3,4,5,6-tetrahydro-2H-1,3-oxazin-2-one]	5.42	–	0.051
COc1ccc(C2CCN(C)C(=O)O2)cc1OC1CCCC1 (centres unmarked) [Compound No. 10, 6-(3-Cyclopentyloxy-4-methoxyphenyl)-3-methyl-3,4,5,6-tetrahydro-2H-1,3-oxazin-2-one]	5.89	7.05	0.95
COc1ccc(C2CCNC(=O)O2)cc1OCC1(c2ccccc2)CC1 (centres unmarked) [Compound No. 56, 6-[4-methoxy-3-[(1-phenylcyclopropyl)methyloxy]phenyl]-3,4,5,6-tetrahydro-2H-1,3-oxazin-2-one]	6.03	–	1.72
COc1ccc(C2(C)CCNC(=O)O2)cc1OC1CCCC1 (centres unmarked) [Compound No. 6, 6-(3-cyclopentyloxy-4-methoxyphenyl)-6-methyl-3,4,5,6-tetrahydro-2H-1,3-oxazin-2-one]	5.96	–	0.3
CCC1(c2ccc(OC)c(OC3CCCC3)c2)CCNC(=O)O1 (centres unmarked) [Compound No. 26, 6-(3-cyclopentyloxy-4-methoxyphenyl)-6-ethyl-3,4,5,6-tetrahydro-2H-1,3-oxazin-2-one]	5.46	–	2.4
COc1ccc(C2CCNC(=O)O2)cc1OCC1CCC1 (centres unmarked) [Compound No. 61, 6-(3-cyclobutylmethyloxy-4-methoxyphenyl)-3,4,5,6-tetrahydro-2H-1,3-oxazin-2-one]	5.49	–	1.84
COc1ccc(C2CCNC(=O)O2)cc1OCC(C)C (centres unmarked) [Compound No. 65, 6-[4-methoxy-3-(2-methylpropoxy)phenyl]-3,4,5,6-tetrahydro-2H-1,3-oxazin-2-one]	5.66	–	0.22
COc1ccc(C2CCNC(=O)O2)cc1OCC1CC1 (centres unmarked) [Compound No. 4, 6-(3-cyclopropylmethyloxy-4-methoxyphenyl)-3,4,5,6-tetrahydro-2H-1,3-oxazin-2-one]	5.49	–	0.23
COc1ccc(C2(C)CCNC(=O)O2)cc1OCC(C)C (centres unmarked) [Compound No. 81, 6-[4-methoxy-3-(2-methylpropoxy)phenyl]-6-methyl-3,4,5,6-tetrahydro-2H-1,3-oxazin-2-one]	5.89	–	0.028
COc1ccc(C2(C)CCNC(=O)O2)cc1OCC1CC1 (centres unmarked) [Compound No. 50, 6-(3-cyclopropylmethyloxy-4-methoxyphenyl)-6-methyl-3,4,5,6-tetrahydro-2H-1,3-oxazin-2-one]	5.96	–	0.3
COc1ccc(C2CCNC(=O)O2)cc1OC (centres unmarked) [Compound No. 1, 6-(3,4-dimethoxyphenyl)-3,4,5,6-tetrahydro-2H-1,3-oxazin-2-one]	5.00	5.06	–
COc1ccc(C2(C)CCNC(=O)O2)cc1OCCc1ccccc1 (centres unmarked) [Compound No. 46, 6-(4-methoxy-3-phenethyloxyphenyl)-6-methyl-3,4,5,6-tetrahydro-2H-1,3-oxazin-2-one]	6.31	–	11.4
COc1ccc(C2(C)CCN(C)C(=O)O2)cc1OCC(C)C (centres unmarked) [Compound No. 82, 3,6-dimethyl-6-[4-methoxy-3-(2-methylpropoxy)phenyl]-3,4,5,6-tetrahydro-2H-1,3-oxazin-2-one]	5.72	–	0.045
COc1ccc(C2CCN(Cc3ccc(Br)cc3)C(=O)O2)cc1OC1CCCC1 (centres unmarked) [Compound No. 11, 3-(4-bromobenzyl)-6-(3-cyclopentyloxy-4-methoxyphenyl)-3,4,5,6-tetrahydro-2H-1,3-oxazin-2-one]	5.85	7.30	3.1
COc1ccc(C2(C)CCN(C)C(=O)O2)cc1OC1Cc2ccccc2C1 (centres unmarked) [Compound No. 43, 3,6-dimethyl-6-[3-(2-indanyloxy)-4-methoxyphenyl]-3,4,5,6-tetrahydro-2H-1,3-oxazin-2-one]	7.18	–	0.29
COc1ccc(C2CCNC(=O)O2)cc1OCC1CCCC1 (centres unmarked) [Compound No. 76, 6-(3-cyclopentylmethyloxy-4-methoxyphenyl)-3,4,5,6-tetrahydro-2H-1,3-oxazin-2-one]	5.54	–	0.27
COc1ccc(C2(C)CCNC(=O)O2)cc1OC1Cc2ccccc2C1 (centres unmarked) [Compound No. 40, 6-[3-(2-indanyloxy)-4-methoxyphenyl]-6-methyl-3,4,5,6-tetrahydro-2H-1,3-oxazin-2-one]	7.30	–	0.47
COc1ccc(C2CCN(Cc3ccncc3)C(=O)O2)cc1OC1CCCC1 (centres unmarked) [Compound No. 14, 6-(3-cyclopentyloxy-4-methoxyphenyl)-3-(4-pyridylmethyl)-3,4,5,6-tetrahydro-2H-1,3-oxazin-2-one]	5.21	–	2.4
COc1ccc(C2(C)CCNC(=O)O2)cc1OC (centres unmarked) [Compound No. 5, 6-(3,4-dimethoxyphenyl)-6-methyl-3,4,5,6-tetrahydro-2H-1,3-oxazin-2-one]	5.17	5.62	0.3
COc1ccc(C2CCN(Cc3ccccc3)C(=O)O2)cc1OC (centres unmarked) [Compound No. 9, 3-benzyl-6-(3 4-dimethoxyphenyl)-3,4,5,6-tetrahydro-2H-1,3-oxazin-2-one]	4.66	5.64	–
COc1ccc(C2CCN(Cc3cccnc3)C(=O)O2)cc1OC1CCCC1 (centres unmarked) [Compound No. 20, 6-(3-cyclopentyloxy-4-methoxyphenyl)-3-(3-pyridylmethyl)-3,4,5,6-tetrahydro-2H-1,3-oxazin-2-one]	5.46	–	8.5
CCN1CCC(c2ccc(OC)c(OC3CCCC3)c2)OC1=O (centres unmarked) [Compound No. 28, 6-(3-cyclopentyloxy-4-methoxyphenyl)-3-ethyl-3,4,5,6-tetrahydro-2H-1,3-oxazin-2-one]	5.77	–	7.4
CCN1CCC(c2ccc(OC)c(OC3Cc4ccccc4C3)c2)OC1=O (centres unmarked) [Compound No. 71, 3-ethyl-6-[3-(2-indanyloxy)-4-methoxyphenyl]-3,4,5,6-tetrahydro-2H-1,3-oxazin-2-one]	6.51	–	2.67
COc1ccc(C2CCNC(=O)O2)cc1OC1Cc2ccccc2C1 (centres unmarked) [Compound No. 24, 6-[3-(2-indanyloxy)-4-methoxyphenyl]-3,4,5,6-tetrahydro-2H-1,3-oxazin-2-one]	6.89	–	1.6
